Assay results reported in PubChem BioAssay AID1259420 (Broad Institute, 2018).
Where “and” joins values, the source holds several entries; their conditions need not be identical. Equal values may be shown once. Records with an inconclusive call do not appear. Calls of active or inactive are those of the source. The rule behind the calls is not given here.

Test system: Toxoplasma gondii growth in host cells, no IFN-gamma
Test: T. gondii intracellular growth, IFN-gamma absent, dose response, cell-based (AID 1259420);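 note: host cells were HeLa; final incubation lasted 72 hours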

Structure (SMILES) | AC50
c1csc(-c2cc(NC3CCNCC3)nc3[nH]ccc23)n1 | 37 µM
O=C(Cc1ccccc1)N1CC(=O)N2[C@H](CO)[C@@H](c3ccc(-c4ccc(F)cc4)cc3)[C@@H]2C1 | 19.2 µM
COc1cccc(-c2ccc3c(c2)[C@@H]2[C@@H](CCN2S(=O)(=O)c2ccccc2F)[C@H](CO)N3)c1 | 10.9 µM
Cc1cc(C)cc(S(=O)(=O)N2CCC3(CC2)NCCN=C3NCc2ccc(C(F)(F)F)cc2)c1 | 18.7 µM
COCCN1CCc2c(cnc(-c3cccnc3)c2C(=O)O)C1 | > 39 µM (inactive)
CC(C)NC(=O)[C@H]1C[C@H]2CCN(CCOCc3ccccc3)C[C@@H]2O1 | > 39 µM (inactive)
CCN(C)C(=O)c1ccc2ccc(N(C)Cc3ccc(OC)cc3)n2c1 | 19.2 µM
O=C(Cc1ccccc1)N1CC(=O)N2[C@H](C1)[C@@H](c1ccc(-c3ccc(F)cc3)cc1)[C@@H]2CO | 24.7 µM
COc1ccc(-c2nc3c(s2)CN(S(=O)(=O)c2cc(C)cc(C)c2)CC3)cc1 | 5.99 µM
CCOCCCNC(=O)c1ccc2ccc(N3CCN(CC4CC4)CC3)n2c1 | > 39 µM (inactive)
COc1cc(CN2C[C@@H]3N[C@H](C2)C3c2ccc(-c3ccc(C#N)cc3)cc2)cc(OC)c1 (some centres undefined) | 7.99 µM
O=C(Nc1ccc(Cl)cc1)N1[C@@H]2CNC[C@H]1C2c1ccc(-c2ccccc2)cc1 (some centres undefined) | 6.4 µM
Cc1ccc(S(=O)(=O)N2CC[C@@H]3[C@H]2c2cc(-c4ccccc4F)ccc2N(C)[C@H]3CO)cc1 | 20.4 µM
O=S(=O)(c1ccccc1F)N1CC[C@@H]2[C@@H](CO)Nc3ccc(C4=CCCCC4)cc3[C@@H]21 | 11.8 µM
CCCNC(=O)N1[C@H](C#N)[C@@H](c2ccc(-c3ccccc3F)cc2)[C@H]1CO | 31.9 µM
Cc1sc2ncnc(Oc3ccc(OCc4ccccc4)cc3)c2c1C | 7.16 µM and 9.76 µM
CC(C)(C)CC(C)(C)c1ccc(OCCOCC[N+](C)(C)Cc2ccccc2)cc1 | 14.1 µM
CCCNC(=O)N1C[C@@H]2N[C@H](C1)C2c1ccc(-c2ccc(OC)cc2)cc1 (some centres undefined) | 14.2 µM
CN(C)C(=O)COCC1CN(S(C)(=O)=O)Cc2nnn(C)c21 (centres undefined) | > 39 µM (inactive)
C[C@@H]1CN([C@@H](C)CO)C(=O)Cc2cc(NC(=O)C3CCCCC3)ccc2O[C@@H]1CN(C)Cc1ccc(Cl)c(Cl)c1 | 13.9 µM
CC[C@]1(O)C[C@@H]2CN(CCc3c([nH]c4ccccc34)[C@@](C(=O)OC)(c3cc4c(cc3OC)N(C)[C@H]3[C@@](O)(C(=O)OC)[C@H](OC(C)=O)[C@]5(CC)C=CCN6CC[C@]43[C@@H]65)C2)C1 | < 0.16 µM

Structure (SMILES) | AC50
CN1CCC2(C=C(C(=O)N3CCCC3)c3ccccc32)CC1 | > 39 µM (inactive)
O=C(CC1CC1)N1CC[C@@H]2[C@H]1c1cc(-c3ccc(F)cc3)ccc1N[C@@H]2CO | 16.3 µM
Cc1ccc(S(=O)(=O)Nc2ccc3c(c2)C(=O)N([C@H](C)CO)C[C@H](C)[C@H](CN(C)Cc2ccc(C(F)(F)F)cc2)O3)cc1 | 18.5 µM
O=C(Nc1ccc(F)cc1)N1CC(=O)N2[C@H](C1)[C@@H](c1ccc(-c3cccc(F)c3)cc1)[C@@H]2CO | 29.4 µM and 15.6 µM
CCc1cnc(N2[C@@H](C#N)[C@@H](c3ccc(C4=CCCCC4)cc3)[C@@H]2CO)s1 | > 20 µM (inactive)
COc1ccc(NC(=O)N2CCCCN3[C@H](CO)[C@@H](c4ccc(-c5ccccc5F)cc4)[C@@H]3C2)cc1 | 19.1 µM
O=C(Cc1ccc(Cl)cc1)N1CC2(CCN(Cc3ccc(C(F)(F)F)cc3)CC2)C1 | > 39 µM (inactive)
COc1ccccc1NC(=O)N1CCCCN2[C@H](CO)[C@H](c3ccc(-c4cccc(C#N)c4)cc3)[C@@H]2C1 | 33.7 µM
CCc1ccccc1S(=O)(=O)N1CCc2nc(-c3ccccc3)sc2C1 | 3.94 µM and 3.08 µM
CCCc1ccc(S(=O)(=O)N2CCC[C@@H]2C(=O)NCCc2csc(-c3ccccc3)n2)cc1 | 18.7 µM
CCCNC(=O)N1[C@H](C#N)[C@H](c2ccc(-c3ccccc3F)cc2)[C@@H]1CO | 4.65 µM
CC1CCCCN1CCNc1nc(-c2ccc(Cl)cc2)nc2ccccc12 (centres undefined) | 11.8 µM
CN1c2ccc(-c3ccc(C#N)cc3)cc2[C@@H]2[C@@H](CCN2S(=O)(=O)c2ccc(F)cc2)[C@@H]1CO | 13 µM
COc1cccc(-c2nc3c(s2)CN(S(=O)(=O)c2ccc(C)cc2)CC3)c1 | 34 µM
COc1ccccc1C1CN(Cc2cccc(O)c2)Cc2ccccc2O1 (centres undefined) | 22.8 µM
Cc1nc2c(cnn2-c2ccccc2)c(=O)n1-c1cccc2ccccc12 | 10.9 µM
COCC1CN(C(=O)c2cc(C)on2)Cc2c1cnn2CC1CC1 (centres undefined) | > 39 µM (inactive)
CO[C@@H]1[C@@H](OC(N)=O)[C@@H](O)[C@H](Oc2ccc3c(O)c(NC(=O)c4ccc(O)c(CC=C(C)C)c4)c(=O)oc3c2C)OC1(C)C | 18 µM
COc1ccc(-c2cnc3n2CCNC32CCN(C(=O)N3CCOCC3)CC2)cc1 | > 39 µM (inactive)
N#C[C@@H]1[C@@H](c2ccc(C3=CCCCC3)cc2)[C@@H](CO)N1S(=O)(=O)c1ccccc1 | > 39 µM (inactive)
COc1ccccc1-c1nc(CN2CCc3c(sc4c3CCCC4)C2c2ccccc2)c(C)o1 (centres undefined) | 22.4 µM

Structure (SMILES) | AC50
CC(=O)NC1=NN(C(C)=O)C(C)(c2ccccc2)S1 (centres undefined) | > 20 µM (inactive)
Cc1cccc(-c2ccc([C@H]3[C@@H](CO)N4CCCCN(S(=O)(=O)c5ccccc5F)C[C@H]34)cc2)c1 | 16.4 µM and 19.5 µM
COc1cccc(C#Cc2ccc([C@@H]3[C@H](C#N)N(C(=O)c4ccccn4)[C@H]3CO)cc2)c1 | 19.9 µM
COc1cccc(-c2ccc(C3[C@@H]4CN(S(=O)(=O)Cc5ccccc5)C[C@H]3N4)cc2)c1 (some centres undefined) | 16.9 µM and 13.1 µM
O=C(Nc1ccc(F)cc1)N1CC(=O)N2[C@H](C1)[C@H](c1ccc(-c3cccc(F)c3)cc1)[C@@H]2CO | 15 µM
CCCNC(=O)N1CC(=O)N2[C@@H](CO)[C@@H](c3ccc(C#Cc4cccc(OC)c4)cc3)[C@@H]2C1 | 31.2 µM
N#Cc1ccc(-c2ccc([C@H]3[C@@H](CO)N4C(=O)CNC[C@@H]34)cc2)cc1 | > 39 µM (inactive)
COc1cc([C@@H]2c3cc4c(cc3C(OC3OC5COC(C)OC5C(O)C3O)C3OCC(=O)[C@@H]32)OCO4)cc(OC)c1O (some centres undefined) | 13.7 µM
O=C(Cc1ccccc1)N1CCC2(CC1)CC(N1CCCC1)CO2 (centres undefined) | > 39 µM (inactive)
COc1cccc(S(=O)(=O)N2CCCCN3[C@H](CO)[C@H](c4ccc(C#CCC(C)C)cc4)[C@H]3C2)c1 | 7.96 µM and 10.6 µM
COc1ccccc1-c1ccc(C2[C@@H]3CN(S(=O)(=O)c4ccc(C)cc4)C[C@H]2N3)cc1 (some centres undefined) | 15.2 µM and > 20 µM (inactive)
N#C[C@@H]1[C@@H](c2ccc(-c3cccc(F)c3)cc2)[C@H](CO)N1C(=O)NC1CCCC1 | > 20 µM (inactive)
COc1ccc(-c2ccc3c(c2)[C@@H]2[C@@H](CCN2C(=O)c2cccc(F)c2)[C@H](CO)N3)cc1 | 11.3 µM
COc1cccc(S(=O)(=O)N2CCCCN3[C@H](CO)[C@H](c4ccc(C#CC5CC5)cc4)[C@H]3C2)c1 | 16.8 µM and 17 µM
CN1c2ccc(C#Cc3cccnc3)cc2[C@@H]2[C@@H](CCN2C(=O)c2cccc(F)c2)[C@@H]1CO | 30.3 µM
O=C(NC1CCC12CCN(Cc1ccoc1)CC2)c1cnccn1 (centres undefined) | > 39 µM (inactive)
COc1ccccc1NC(=O)N1CC(=O)N2[C@H](CO)[C@H](c3ccc(C#CC(C)C)cc3)[C@H]2C1 | > 39 µM (inactive)
Cc1ccc(S(=O)(=O)N2CC[C@H]3[C@@H](CO)N(C)c4ccc(-c5ccccc5F)cc4[C@H]32)cc1 | > 20 µM (inactive)
CC(C)NC(=O)N1CC[C@@H]2[C@H]1c1cc(-c3ccc(F)cc3)ccc1N(C)[C@@H]2CO | > 20 µM (inactive)
CN1c2ccc(-c3ccccc3)cc2[C@@H]2[C@@H](CCN2C(=O)NC2CCCCC2)[C@H]1CO | 8.76 µM
Cc1cnn(C(C)C(=O)N2CCc3[nH]nc(-c4ccc(F)c(F)c4)c3C2)c1 (centres undefined) | > 39 µM (inactive)

Structure (SMILES) | AC50
CN(C)C(=O)c1ccc(-c2ccc3c(c2)[C@@H]2[C@@H](CCN2C(=O)C2CCCC2)[C@@H](CO)N3C)cc1 | 17.5 µM
COCC(=O)N1CC(=O)N2[C@H](CO)[C@@H](c3ccc(C#CC4CC4)cc3)[C@@H]2C1 | > 39 µM (inactive)
C[C@H]1CN([C@@H](C)CO)C(=O)c2cccc(NC(=O)c3ccc(-c4nccs4)cc3)c2O[C@@H]1CN(C)C(=O)Nc1ccc(C(F)(F)F)cc1 | > 42 µM (inactive)
COc1ccc(-c2ccc3c(c2)[C@H]2[C@H](CCN2C(=O)c2cccc(F)c2)[C@@H](CO)N3)cc1 | 10.6 µM
O=C(Nc1cccc(F)c1)N1CCCCN2[C@@H](CO)[C@H](c3ccc(C#Cc4cccnc4)cc3)[C@@H]2C1 | 3.04 µM
CCc1cnc(N2[C@H](C#N)[C@H](c3ccc(C#Cc4ccccc4F)cc3)[C@@H]2CO)s1 | 11.3 µM
O=C1CNC[C@H]2[C@@H](c3ccc(Br)cc3)[C@H](CO)N12 | 35.9 µM
Cc1ccccc1CN1C[C@@H]2c3nc(N4CCCC(C)C4)ncc3CS(=O)(=O)[C@H]2C1 (some centres undefined) | 28.2 µM
CN1C(=O)CC2C1CCN2S(=O)(=O)Cc1ccccc1 (centres undefined) | > 39 µM (inactive)
Cc1nc2ccccn2c1CN(C)Cc1cnn(-c2ccccc2)c1 | 12.2 µM
C[C@@H]1CN([C@@H](C)CO)C(=O)c2cccc(NC(=O)NC3CCCCC3)c2O[C@H]1CN(C)Cc1ccc(C(F)(F)F)cc1 | > 39 µM (inactive)
O=C(C[C@@H]1CC[C@@H]2[C@H](COC[C@@H](O)CN2S(=O)(=O)c2ccccc2)O1)NCC1CCCCC1 | 33.4 µM
C=CCN1C(=O)COC2(CCN(Cc3ccc(C)s3)CC2)C1C (centres undefined) | > 39 µM (inactive)
COc1cccc(S(=O)(=O)N2CCCCN3[C@@H](CO)[C@@H](c4ccc(C#CCC(C)C)cc4)[C@@H]3C2)c1 | 12.1 µM and 10.1 µM
N#C[C@@H]1[C@@H](c2ccc(C#Cc3cccnc3)cc2)[C@@H](CO)N1C(=O)NC1CCCCC1 | > 39 µM (inactive)
N#Cc1cccc(C(=O)N2CCC3C2CC(=O)N3Cc2ccncc2)c1 (centres undefined) | > 20 µM (inactive)
CCc1cnc(N2[C@H](C#N)[C@@H](c3ccc(-c4cccc(F)c4)cc3)[C@@H]2CO)s1 | > 39 µM (inactive)
COCC(=O)N1[C@@H](C#N)[C@H](c2ccc(C#CCC3CCCC3)cc2)[C@@H]1CO | 18.7 µM
COc1cc2nc(N3CCN(C(=O)c4ccco4)CC3)nc(N)c2cc1OC | 19 µM
COc1cc([C@@H]2c3cc4c(cc3C(OC3O[C@@H]5COC(C)O[C@H]5[C@H](O)[C@H]3O)C3COC(=O)[C@@H]32)OCO4)cc(OC)c1O (some centres undefined) | 23.5 µM
COc1ccc(-c2nc(Nc3ccc(CN4CCCCC4)cc3)c3ccccc3n2)cc1 | 18.5 µM
